Results as given in publication PMC5303205, “Comparative studies on the multi-component pharmacokinetics of Aristolochiae Fructus and honey-fried Aristolochiae Fructus extracts after oral administration in rats” (BMC Complementary and Alternative Medicine, 2017).
Read-outs that look alike come from different tables or passages of the source.

What was measured:
[1] = Stability of AAs in rat plasma (QC samples, HPLC-MS/MS); format: in vitro ADME; conditions: n = 5; for Short-term stability (RSD/%): fresh rat plasma at room temperature for 24 h before sample preparation; for Post-preparation stability (RSD/%): prepared rat plasma samples at room temperature for 24 h; for Long-term stability (RSD/%): rat plasma stored at –20 °C for 14 days; for Freeze-thaw stability (RSD/%): rat plasma, three freeze-thaw cycles (–20 °C 24 h, thawed at room temperature)
Method in brief: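 Rat plasma QC samples tested over three freeze-thaw cycles (–20 °C 24 h, thawed at room temperature), 14 days at –20 °C, 24 h at room temperature before preparation, and 24 h post-preparation, by HPLC-MS/MS. Mean concentrations compared with freshly prepared samples; bias within ±15% accepted.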

[2] = Multi-component pharmacokinetics of AAs in rats after oral administration of AF and HAF extracts (HPLC-MS/MS of plasma); parameters: species or system Sprague–Dawley (SD) rats; conditions: Sprague-Dawley, rat, in vivo
Method in brief: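 Rats were fasted 12 h and given AF or HAF extracts orally in 0.5% CMC–Na at 3.0, 8.0 or 15.0 mg/kg (as AA I), n = 6 per group. Ocular-vein plasma was sampled 0–24 h, ethyl-acetate extracted with internal standard, and analysed by C18 HPLC-MS/MS (positive ESI, MRM). Cmax was observed and other parameters model-fitted.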

[3] = high QC conc ng/mL: AA I 1830, AA II 3200, AA C 2980, AA D 3680, 7-OH AA I 3280
[4] = low QC conc ng/mL: AA I 1.83, AA II 8.00, AA C 186.3, AA D 36.8, 7-OH AA I 82.0
[5] = middle QC conc ng/mL: AA I 457.5, AA II 400, AA C 372.5, AA D 460, 7-OH AA I 410
[6] = 3 mg/kg, AF extract, low dose (3.0 mg/kg as AA I), analyte dose mg/kg: AA I 3.0, AA II 0.21, AA C 1.42, AA D 1.60, 7-OH AA I 2.33, n = 6
[7] = 3 mg/kg, HAF extract, low dose (3.0 mg/kg as AA I), analyte dose mg/kg: AA I 3.0, AA II 0.26, AA C 1.53, AA D 1.51, 7-OH AA I 2.48, n = 6
[8] = 8 mg/kg, AF extract, mid dose (8.0 mg/kg as AA I), analyte dose mg/kg: AA I 8.0, AA II 0.56, AA C 3.78, AA D 4.26, 7-OH AA I 6.22, n = 6
[9] = 8 mg/kg, HAF extract, mid dose (8.0 mg/kg as AA I), analyte dose mg/kg: AA I 8.0, AA II 0.69, AA C 4.09, AA D 4.03, 7-OH AA I 6.62, n = 6
[10] = 15 mg/kg, AF extract, high dose (15.0 mg/kg as AA I), analyte dose mg/kg: AA I 15.0, AA II 1.05, AA C 7.09, AA D 8.00, 7-OH AA I 11.66, n = 6
[11] = 15 mg/kg, HAF extract, high dose (15.0 mg/kg as AA I), analyte dose mg/kg: AA I 15.0, AA II 1.29, AA C 7.66, AA D 7.56, 7-OH AA I 12.41, n = 6

O=C(O)c1cc2c(c3c1c([N+](=O)[O-])cc1ccccc13)OCO2 [AA II]
Short-term stability (RSD/%) [1, 3]: 9.3% | Short-term stability (RSD/%) [1, 4]: 5.0% | Short-term stability (RSD/%) [1, 5]: 5.5% | Post-preparation stability (RSD/%) [1, 3]: 6.5% | Post-preparation stability (RSD/%) [1, 4]: 4.4% | Post-preparation stability (RSD/%) [1, 5]: 3.6% | Long-term stability (RSD/%) [1, 3]: 7.3% | Long-term stability (RSD/%) [1, 4]: 1.2% | Long-term stability (RSD/%) [1, 5]: 8.2% | Freeze-thaw stability (RSD/%) [1, 3]: 14.3% | Freeze-thaw stability (RSD/%) [1, 4]: 1.3% | Freeze-thaw stability (RSD/%) [1, 5]: 10.2% | AUC(0-inf) [2, 6]: 3960 ± 1000 ng·h/mL | Cmax [2, 6]: 590 ± 191 ng/mL | Tmax [2, 6]: 1.03 ± 0.18 h | CL/F ([2]; 3 mg/kg, AF extract, low dose (3.0 mg/kg as AA I), analyte dose mg/kg: AA I 3.0, AA II 0.21, AA C 1.42, AA D 1.60, 7-OH AA I 2.33, n = 6, read-out: CLz/F (converted)): 1.17 mL/min/kg | Vd/F ([2]; 3 mg/kg, AF extract, low dose (3.0 mg/kg as AA I), analyte dose mg/kg: AA I 3.0, AA II 0.21, AA C 1.42, AA D 1.60, 7-OH AA I 2.33, n = 6, read-out: Vz/F): 0.49 ± 0.06 L/kg | half-life ([2]; 3 mg/kg, AF extract, low dose (3.0 mg/kg as AA I), analyte dose mg/kg: AA I 3.0, AA II 0.21, AA C 1.42, AA D 1.60, 7-OH AA I 2.33, n = 6, read-out: t 1/2z (converted)): 4.98 ± 0.55 h | AUC(0-inf) [2, 7]: 2720 ± 795 ng·h/mL | Cmax [2, 7]: 293 ± 55.2 ng/mL | Tmax [2, 7]: 0.81 ± 0.14 h | CL/F ([2]; 3 mg/kg, HAF extract, low dose (3.0 mg/kg as AA I), analyte dose mg/kg: AA I 3.0, AA II 0.26, AA C 1.53, AA D 1.51, 7-OH AA I 2.48, n = 6, read-out: CLz/F (converted)): 1.33 mL/min/kg | Vd/F ([2]; 3 mg/kg, HAF extract, low dose (3.0 mg/kg as AA I), analyte dose mg/kg: AA I 3.0, AA II 0.26, AA C 1.53, AA D 1.51, 7-OH AA I 2.48, n = 6, read-out: Vz/F): 0.55 ± 0.07 L/kg | half-life ([2]; 3 mg/kg, HAF extract, low dose (3.0 mg/kg as AA I), analyte dose mg/kg: AA I 3.0, AA II 0.26, AA C 1.53, AA D 1.51, 7-OH AA I 2.48, n = 6, read-out: t 1/2z (converted)): 4.94 ± 0.61 h | AUC(0-inf) [2, 8]: 7820 ± 1980 ng·h/mL | Cmax [2, 8]: 1140 ± 193 ng/mL | Tmax [2, 8]: 1.33 ± 0.21 h | CL/F ([2]; 8 mg/kg, AF extract, mid dose (8.0 mg/kg as AA I), analyte dose mg/kg: AA I 8.0, AA II 0.56, AA C 3.78, AA D 4.26, 7-OH AA I 6.22, n = 6, read-out: CLz/F (converted)): 1.17 mL/min/kg | Vd/F ([2]; 8 mg/kg, AF extract, mid dose (8.0 mg/kg as AA I), analyte dose mg/kg: AA I 8.0, AA II 0.56, AA C 3.78, AA D 4.26, 7-OH AA I 6.22, n = 6, read-out: Vz/F): 0.48 ± 0.05 L/kg | half-life ([2]; 8 mg/kg, AF extract, mid dose (8.0 mg/kg as AA I), analyte dose mg/kg: AA I 8.0, AA II 0.56, AA C 3.78, AA D 4.26, 7-OH AA I 6.22, n = 6, read-out: t 1/2z (converted)): 5.06 ± 0.49 h | AUC(0-inf) [2, 9]: 3870 ± 1200 ng·h/mL | Cmax [2, 9]: 412 ± 104 ng/mL | Tmax [2, 9]: 0.81 ± 0.16 h | CL/F ([2]; 8 mg/kg, HAF extract, mid dose (8.0 mg/kg as AA I), analyte dose mg/kg: AA I 8.0, AA II 0.69, AA C 4.09, AA D 4.03, 7-OH AA I 6.62, n = 6, read-out: CLz/F (converted)): 1.17 mL/min/kg | Vd/F ([2]; 8 mg/kg, HAF extract, mid dose (8.0 mg/kg as AA I), analyte dose mg/kg: AA I 8.0, AA II 0.69, AA C 4.09, AA D 4.03, 7-OH AA I 6.62, n = 6, read-out: Vz/F): 0.49 ± 0.06 L/kg | half-life ([2]; 8 mg/kg, HAF extract, mid dose (8.0 mg/kg as AA I), analyte dose mg/kg: AA I 8.0, AA II 0.69, AA C 4.09, AA D 4.03, 7-OH AA I 6.62, n = 6, read-out: t 1/2z (converted)): 4.95 ± 0.53 h | AUC(0-inf) [2, 10]: 12700 ± 2960 ng·h/mL | Cmax [2, 10]: 1520 ± 200 ng/mL | Tmax [2, 10]: 1.83 ± 0.29 h | CL/F ([2]; 15 mg/kg, AF extract, high dose (15.0 mg/kg as AA I), analyte dose mg/kg: AA I 15.0, AA II 1.05, AA C 7.09, AA D 8.00, 7-OH AA I 11.66, n = 6, read-out: CLz/F (converted)): 1.83 mL/min/kg | Vd/F ([2]; 15 mg/kg, AF extract, high dose (15.0 mg/kg as AA I), analyte dose mg/kg: AA I 15.0, AA II 1.05, AA C 7.09, AA D 8.00, 7-OH AA I 11.66, n = 6, read-out: Vz/F): 0.82 ± 0.09 L/kg | half-life ([2]; 15 mg/kg, AF extract, high dose (15.0 mg/kg as AA I), analyte dose mg/kg: AA I 15.0, AA II 1.05, AA C 7.09, AA D 8.00, 7-OH AA I 11.66, n = 6, read-out: t 1/2z (converted)): 5.16 ± 0.52 h | AUC(0-inf) [2, 11]: 5630 ± 1690 ng·h/mL | Cmax [2, 11]: 528 ± 62.4 ng/mL | Tmax [2, 11]: 0.93 ± 0.19 h | CL/F ([2]; 15 mg/kg, HAF extract, high dose (15.0 mg/kg as AA I), analyte dose mg/kg: AA I 15.0, AA II 1.29, AA C 7.66, AA D 7.56, 7-OH AA I 12.41, n = 6, read-out: CLz/F (converted)): 1.5 mL/min/kg | Vd/F ([2]; 15 mg/kg, HAF extract, high dose (15.0 mg/kg as AA I), analyte dose mg/kg: AA I 15.0, AA II 1.29, AA C 7.66, AA D 7.56, 7-OH AA I 12.41, n = 6, read-out: Vz/F): 0.72 ± 0.08 L/kg | half-life ([2]; 15 mg/kg, HAF extract, high dose (15.0 mg/kg as AA I), analyte dose mg/kg: AA I 15.0, AA II 1.29, AA C 7.66, AA D 7.56, 7-OH AA I 12.41, n = 6, read-out: t 1/2z (converted)): 5.39 ± 0.48 h
